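48-hour exposure; five concentrations; linearly interpolated endpoints. TGI: total growth inhibition.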
Key:
Test in all cases: NCI-60 cell line screen, 48 h
HCC-2998 colon = test system: HCC-2998 colon
HT29 colon = test system: HT29 colon
SF-268 CNS = test system: SF-268 CNS
OVCAR-5 ovarian = test system: OVCAR-5 ovarian
NCI-H460 lung = test system: NCI-H460 lung
HCT-116 colon = test system: HCT-116 colon
MOLT-4 leukemia = test system: MOLT-4 leukemia
M14 melanoma = test system: M14 melanoma
UACC-62 melanoma = test system: UACC-62 melanoma

Measured: TGI

Cc1ccc([N+]2=NC(c3ccccc3)=NN(c3ccccc3)C2)cc1
not listed: M14 melanoma | UACC-62 melanoma
> 100 µM: all other assays above

C/C(=N\Nc1n[nH]c(=S)n1N)c1c(O)cc(C)oc1=O
not listed: OVCAR-5 ovarian
> 100 µM: all other assays above

O=C(N/C(=C\c1ccc(F)cc1)c1nc2ccccc2[nH]1)c1ccccc1
not listed: HCC-2998 colon
> 100 µM: all other assays above

COC(=O)C(=O)C(C#N)c1c(Cl)cccc1Cl (stereo unspecified)
not listed: HCC-2998 colon
> 100 µM: all other assays above

NC(=O)c1nc(-c2ccc(Cl)c(Cl)c2)nc2ccccc12
not listed: HCC-2998 colon
> 100 µM: all other assays above

COc1cc(CCc2ccncc2)cc(OC)c1OC
not listed: HCC-2998 colon
> 100 µM: all other assays above

CC1OC(=O)N2CCC=CC12 (stereo unspecified)
not listed: HCC-2998 colon | M14 melanoma
> 100 µM: all other assays above

CC1=CC(=O)N2C(OC[C@@H]2c2ccccc2)O1 (stereo partly specified)
not listed: HCC-2998 colon | OVCAR-5 ovarian
> 100 µM: all other assays above

C#C[C@@H](CCCC)OC(=O)N[C@H](C)c1ccccc1
not listed: HCC-2998 colon | SF-268 CNS
> 100 µM: all other assays above

Cc1nc(-n2nc(-c3ccccc3)cc2-c2ccccc2)sc1C(=O)CC(=O)C(=O)Nc1ccc(O)cc1
not listed: NCI-H460 lung
> 100 µM: all other assays above

CCCCOP1(=O)CC(C)=C(Cl)C(C)(OC)C1 (stereo unspecified)
not listed: OVCAR-5 ovarian
> 100 µM: all other assays above

N#CNC1=NCCC(=O)N1CCc1c[nH]c2ccccc12
not listed: OVCAR-5 ovarian | NCI-H460 lung
> 100 µM: all other assays above

COC1CC(n2cc(F)c(N)nc2=O)OC1CO (stereo unspecified)
not listed: HCT-116 colon | UACC-62 melanoma
> 100 µM: all other assays above

N#CC(C#N)C(c1ccccc1)c1ccccc1
not listed: HT29 colon
> 100 µM: all other assays above

Reference: PubChem BioAssay (NCI)
